Target: ATP-dependent translocase ABCB1 (Mus musculus, UniProt P21447)
Assay: TP_TRANSPORTER: increase in brain concentration in mdr1a(-/-) mouse
Format: functional, organism-based
Settings: in vivo

ATP-dependent translocase ABCB1, sequence (P21447 whole entry): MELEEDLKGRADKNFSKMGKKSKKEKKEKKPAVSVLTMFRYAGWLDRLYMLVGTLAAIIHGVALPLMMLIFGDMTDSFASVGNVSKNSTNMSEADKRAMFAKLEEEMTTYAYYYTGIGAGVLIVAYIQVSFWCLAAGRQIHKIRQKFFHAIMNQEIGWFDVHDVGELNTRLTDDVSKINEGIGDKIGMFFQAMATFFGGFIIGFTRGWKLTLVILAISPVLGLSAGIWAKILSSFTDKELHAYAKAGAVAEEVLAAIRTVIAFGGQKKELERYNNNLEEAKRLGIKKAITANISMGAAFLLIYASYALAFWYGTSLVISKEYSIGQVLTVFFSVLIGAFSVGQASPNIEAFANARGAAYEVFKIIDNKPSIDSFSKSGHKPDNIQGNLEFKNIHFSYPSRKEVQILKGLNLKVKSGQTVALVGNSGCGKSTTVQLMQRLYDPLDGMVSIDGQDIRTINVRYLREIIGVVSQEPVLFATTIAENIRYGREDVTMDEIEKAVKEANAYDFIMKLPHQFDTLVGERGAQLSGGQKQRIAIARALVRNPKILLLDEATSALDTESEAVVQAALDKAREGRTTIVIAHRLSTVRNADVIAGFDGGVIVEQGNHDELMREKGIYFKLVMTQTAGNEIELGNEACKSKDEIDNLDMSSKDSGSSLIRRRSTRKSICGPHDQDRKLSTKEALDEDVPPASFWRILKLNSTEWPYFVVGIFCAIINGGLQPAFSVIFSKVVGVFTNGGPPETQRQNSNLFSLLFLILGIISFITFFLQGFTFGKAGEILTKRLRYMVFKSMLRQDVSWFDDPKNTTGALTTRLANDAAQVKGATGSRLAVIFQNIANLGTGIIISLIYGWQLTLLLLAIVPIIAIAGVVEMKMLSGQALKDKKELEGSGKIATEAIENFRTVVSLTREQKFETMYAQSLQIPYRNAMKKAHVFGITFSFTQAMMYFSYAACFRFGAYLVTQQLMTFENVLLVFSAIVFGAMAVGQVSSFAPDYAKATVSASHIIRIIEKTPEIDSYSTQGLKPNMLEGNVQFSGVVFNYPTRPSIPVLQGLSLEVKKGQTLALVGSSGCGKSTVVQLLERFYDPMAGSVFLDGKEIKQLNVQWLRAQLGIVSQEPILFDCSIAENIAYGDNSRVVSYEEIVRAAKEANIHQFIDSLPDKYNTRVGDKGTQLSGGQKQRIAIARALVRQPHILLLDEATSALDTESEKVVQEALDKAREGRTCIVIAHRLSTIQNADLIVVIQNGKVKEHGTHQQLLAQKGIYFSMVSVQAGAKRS

- Activity: substrate [+]
Compound: CCC(C)n1ncn(-c2ccc(N3CCN(c4ccc(OCC5COC(Cn6cncn6)(c6ccc(Cl)cc6Cl)O5)cc4)CC3)cc2)c1=O (stereo unspecified) [ITRACONAZOLE]

From ChEMBL document CHEMBL2074470, “P-glycoprotein-mediated transport of itraconazole across the blood-brain barrier” (Antimicrob Agents Chemother, 1998)
